Experimental data published in US5874443A, “Isoquinoline derivatives and isoquinoline combinatorial libraries” (Trega Biosciences, Inc., priority 1996, dated 1999).
Entries after “also recorded” stand apart in the source; their conditions may differ.

Molecular target: T1, σ receptor (Rattus norvegicus, UniProt Q9R0C9)
T1 construct: The brains are thawed, the cerebella removed and the remaining tissue weighed; tissue Rockland (Gilbertsville, Pa.); host or cells: rat brain without cerebellum, crude particulate membranes
T1 sequence (Q9R0C9 whole entry): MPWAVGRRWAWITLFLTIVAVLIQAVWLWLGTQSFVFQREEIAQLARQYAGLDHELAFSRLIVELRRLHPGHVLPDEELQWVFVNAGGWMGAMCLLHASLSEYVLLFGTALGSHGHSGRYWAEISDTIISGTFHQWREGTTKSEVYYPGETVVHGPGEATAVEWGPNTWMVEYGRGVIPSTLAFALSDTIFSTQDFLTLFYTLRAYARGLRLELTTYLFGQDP
Test: σ receptor radio-receptor assay, inhibition of radiolabeled pentazocine binding
Conditions: for IC50: Table IV, individual compounds, R1 varied

Structure (SMILES) | activity in the σ receptor screen (positional scan) (in words, Example 51) | IC50 | activity in the σ receptor assay (iterative approach) (in words, Example 44)
COc1ccc(Cc2ccc(C3C(C(=O)NCC4CCCCC4)c4ccccc4C(=O)N3CCCCCCC(N)=O)o2)cc1 (centres unmarked) | most active; also recorded: virtually equal activity |  | 
COc1ccc(Cc2ccc(C3C(C(=O)NCC45CC6CC(CC(C6)C4)C5)c4ccccc4C(=O)N3CCCCCCC(N)=O)o2)cc1 (centres unmarked) [Compound 1] |  | 56 nM | most active
COc1ccc(Cc2ccc(C3C(C(=O)NCC45CC6CC(CC(C6)C4)C5)c4ccccc4C(=O)N3C[C@H](N)C(N)=O)o2)cc1 (some centres unmarked) [Compound 3] |  | 71 nM | 
COc1ccc(Cc2ccc(C3C(C(=O)NCC45CC6CC(CC(C6)C4)C5)c4ccccc4C(=O)N3C[C@H]3CC[C@H](C(N)=O)CC3)o2)cc1 (some centres unmarked) [Pool 2] |  | 68 nM | 
COc1ccc(Cc2ccc(C3C(C(=O)NCC45CC6CC(CC(C6)C4)C5)c4ccccc4C(=O)N3CCOCCOCC(N)=O)o2)cc1 (centres unmarked) [Pool 5] |  | 117 nM | 
COc1ccc(Cc2ccc(C3C(C(=O)NCC45CC6CC(CC(C6)C4)C5)c4ccccc4C(=O)N3CC(N)=O)o2)cc1 (centres unmarked) [Pool 6] |  | 124 nM | 
COc1ccc(Cc2ccc(C3C(C(=O)NCC45CC6CC(CC(C6)C4)C5)c4ccccc4C(=O)N3Cc3ccc(C(N)=O)cc3)o2)cc1 (centres unmarked) [Pool 7] |  | 130 nM | 
COc1ccc(Cc2ccc(C3C(C(=O)NCC45CC6CC(CC(C6)C4)C5)c4ccccc4C(=O)N3CCCC[C@H](N)C(N)=O)o2)cc1 (some centres unmarked) [Pool 8] |  | 150 nM | 
COc1ccc(Cc2ccc(C3C(C(=O)NCC45CC6CC(CC(C6)C4)C5)c4ccccc4C(=O)N3CCCCC(N)=O)o2)cc1 (centres unmarked) [Pool 9] |  | 231 nM | 
COc1ccc(Cc2ccc(C3C(C(=O)NCC45CC6CC(CC(C6)C4)C5)c4ccccc4C(=O)N3CCC(N)=O)o2)cc1 (centres unmarked) [Pool 10] |  | 355 nM | 
